Laboratory results from the supplement of paper PMC10307832.

Tests used:
Assay in all cases: relative viability (nuclei count vs DMSO), 5 days (fraction); higher = more cells survive
201T = system: 201T
In short: (§1)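 The day after seeding in 1536-well plates, lung cancer cell lines were treated by pin tool with a single drug, or with a fixed anchor-drug dose together with five library-drug doses (not always all listed) in √10 steps. After 5 days, a combined fix-and-stain solution (final 0.05% Triton X-100, 1% formaldehyde, 1 ug/ml Hoechst) was added. Nuclei counted on 4× images gave relative viability as treated counts over vehicle counts, reported as the median of duplicate plates.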

A-427 = system: A-427
In short: as §1

COR-L 105 = system: COR-L 105
In short: as §1

COR-L23 = system: COR-L23
In short: as §1

EKVX = system: EKVX
In short: as §1

HARA = system: HARA
In short: as §1

HCC-15 = system: HCC-15
In short: as §1

HCC-44 = system: HCC-44
In short: as §1

HCC-827 = system: HCC-827
In short: as §1

LCLC-103H = system: LCLC-103H
In short: as §1

LK-2 = system: LK-2
In short: as §1

NCI-H1437 = system: NCI-H1437
In short: as §1

NCI-H1666 = system: NCI-H1666
In short: as §1

NCI-H1792 = system: NCI-H1792
In short: as §1

NCI-H1975 = system: NCI-H1975
In short: as §1

NCI-H23 = system: NCI-H23
In short: as §1

NCI-H441 = system: NCI-H441
In short: as §1

NCI-H520 = system: NCI-H520
In short: as §1

NCI-H522 = system: NCI-H522
In short: as §1

NCI-H650 = system: NCI-H650
In short: as §1

NCI-H838 = system: NCI-H838
In short: as §1

SK-MES-1 = system: SK-MES-1
In short: as §1

SW 900 = system: SW 900
In short: as §1

## Clc1ccc(Nc2nnc(Cc3ccncc3)c3ccccc23)cc1 [Vatalanib] + CC(=O)c1c(C)c2cnc(Nc3ccc(N4CCNCC4)cn3)nc2n(C2CCCC2)c1=O [Palbociclib] (partner 0.5 µM)
201T; first compound 0.04 µM
  relative viability: 0.777
201T; first compound 0.1265 µM
  relative viability: 0.344
201T; first compound 0.4 µM
  relative viability: 0.348
201T; first compound 1.265 µM
  relative viability: 0.341
201T; first compound 4 µM
  relative viability: 0.332
A-427; first compound 0.04 µM
  relative viability: 0.568
A-427; first compound 0.1265 µM
  relative viability: 0.482
A-427; first compound 0.4 µM
  relative viability: 0.546
A-427; first compound 4 µM
  relative viability: 0.508
COR-L 105; first compound 0.04 µM
  relative viability: 0.404
COR-L 105; first compound 0.1265 µM
  relative viability: 0.369
COR-L 105; first compound 0.4 µM
  relative viability: 0.402
COR-L 105; first compound 1.265 µM
  relative viability: 0.441
COR-L 105; first compound 4 µM
  relative viability: 0.396
COR-L23; first compound 0.04 µM
  relative viability: 0.364
COR-L23; first compound 0.1265 µM
  relative viability: 0.286
COR-L23; first compound 0.4 µM
  relative viability: 0.322
COR-L23; first compound 1.265 µM
  relative viability: 0.293
COR-L23; first compound 4 µM
  relative viability: 0.297
EKVX; first compound 0.04 µM
  relative viability: 0.366
EKVX; first compound 0.1265 µM
  relative viability: 0.369
EKVX; first compound 0.4 µM
  relative viability: 0.343
EKVX; first compound 1.265 µM
  relative viability: 0.375
EKVX; first compound 4 µM
  relative viability: 0.334
HARA; first compound 0.04 µM
  relative viability: 0.227
HARA; first compound 0.1265 µM
  relative viability: 0.361
HARA; first compound 0.4 µM
  relative viability: 0.224
HARA; first compound 1.265 µM
  relative viability: 0.244
HARA; first compound 4 µM
  relative viability: 0.238
HCC-15; first compound 0.04 µM
  relative viability: 0.711
HCC-15; first compound 0.1265 µM
  relative viability: 0.676
HCC-15; first compound 0.4 µM
  relative viability: 0.759
HCC-15; first compound 1.265 µM
  relative viability: 0.691
HCC-15; first compound 4 µM
  relative viability: 0.668
HCC-44; first compound 0.04 µM
  relative viability: 0.922
HCC-44; first compound 0.1265 µM
  relative viability: 0.981
HCC-44; first compound 0.4 µM
  relative viability: 0.913
HCC-44; first compound 1.265 µM
  relative viability: 0.955
HCC-44; first compound 4 µM
  relative viability: 0.959
HCC-827; first compound 0.04 µM
  relative viability: 0.484
HCC-827; first compound 0.1265 µM
  relative viability: 0.406
HCC-827; first compound 1.265 µM
  relative viability: 0.49
HCC-827; first compound 4 µM
  relative viability: 0.475
LCLC-103H; first compound 0.04 µM
  relative viability: 0.506
LCLC-103H; first compound 0.1265 µM
  relative viability: 0.452
LCLC-103H; first compound 0.4 µM
  relative viability: 0.503
LCLC-103H; first compound 1.265 µM
  relative viability: 0.443
LCLC-103H; first compound 4 µM
  relative viability: 0.513
LK-2; first compound 0.04 µM
  relative viability: 0.41
LK-2; first compound 0.1265 µM
  relative viability: 0.694
LK-2; first compound 0.4 µM
  relative viability: 0.796
LK-2; first compound 1.265 µM
  relative viability: 0.762
LK-2; first compound 4 µM
  relative viability: 0.748
NCI-H1437; first compound 0.04 µM
  relative viability: 0.309
NCI-H1437; first compound 0.1265 µM
  relative viability: 0.318
NCI-H1437; first compound 0.4 µM
  relative viability: 0.356
NCI-H1437; first compound 1.265 µM
  relative viability: 0.294
NCI-H1437; first compound 4 µM
  relative viability: 0.279
NCI-H1666; first compound 0.04 µM
  relative viability: 0.646
NCI-H1666; first compound 0.1265 µM
  relative viability: 0.624
NCI-H1666; first compound 0.4 µM
  relative viability: 0.643
NCI-H1666; first compound 1.265 µM
  relative viability: 0.616
NCI-H1666; first compound 4 µM
  relative viability: 0.667
NCI-H1792; first compound 0.04 µM
  relative viability: 0.613
NCI-H1792; first compound 0.1265 µM
  relative viability: 0.543
NCI-H1792; first compound 0.4 µM
  relative viability: 0.637
NCI-H1792; first compound 1.265 µM
  relative viability: 0.738
NCI-H1792; first compound 4 µM
  relative viability: 0.687
NCI-H1975; first compound 0.04 µM
  relative viability: 0.651
NCI-H1975; first compound 0.1265 µM
  relative viability: 0.5
NCI-H1975; first compound 0.4 µM
  relative viability: 0.768
NCI-H1975; first compound 1.265 µM
  relative viability: 0.528
NCI-H1975; first compound 4 µM
  relative viability: 0.489
NCI-H23; first compound 0.04 µM
  relative viability: 0.469
NCI-H23; first compound 0.1265 µM
  relative viability: 0.435
NCI-H23; first compound 0.4 µM
  relative viability: 0.533
NCI-H23; first compound 1.265 µM
  relative viability: 0.473
NCI-H23; first compound 4 µM
  relative viability: 0.468
NCI-H441; first compound 0.04 µM
  relative viability: 0.223
NCI-H441; first compound 0.1265 µM
  relative viability: 0.194
NCI-H441; first compound 0.4 µM
  relative viability: 0.253
NCI-H441; first compound 1.265 µM
  relative viability: 0.194
NCI-H441; first compound 4 µM
  relative viability: 0.223
NCI-H520; first compound 0.04 µM
  relative viability: 0.214
NCI-H520; first compound 0.1265 µM
  relative viability: 0.242
NCI-H520; first compound 0.4 µM
  relative viability: 0.255
NCI-H520; first compound 1.265 µM
  relative viability: 0.199
NCI-H520; first compound 4 µM
  relative viability: 0.19
NCI-H522; first compound 0.04 µM
  relative viability: 0.872
NCI-H522; first compound 0.1265 µM
  relative viability: 1.06
NCI-H522; first compound 0.4 µM
  relative viability: 1.18
NCI-H522; first compound 1.265 µM
  relative viability: 1.06
NCI-H522; first compound 4 µM
  relative viability: 0.993
NCI-H650; first compound 0.04 µM
  relative viability: 0.308
NCI-H650; first compound 0.1265 µM
  relative viability: 0.316
NCI-H650; first compound 0.4 µM
  relative viability: 0.298
NCI-H650; first compound 1.265 µM
  relative viability: 0.32
NCI-H650; first compound 4 µM
  relative viability: 0.32
NCI-H838; first compound 0.04 µM
  relative viability: 0.227
NCI-H838; first compound 0.1265 µM
  relative viability: 0.235
NCI-H838; first compound 0.4 µM
  relative viability: 0.218
NCI-H838; first compound 1.265 µM
  relative viability: 0.203
NCI-H838; first compound 4 µM
  relative viability: 0.215
SK-MES-1; first compound 0.04 µM
  relative viability: 0.339
SK-MES-1; first compound 0.1265 µM
  relative viability: 0.309
SK-MES-1; first compound 0.4 µM
  relative viability: 0.347
SK-MES-1; first compound 1.265 µM
  relative viability: 0.309
SK-MES-1; first compound 4 µM
  relative viability: 0.305
SW 900; first compound 0.04 µM
  relative viability: 0.504
SW 900; first compound 0.1265 µM
  relative viability: 0.523
SW 900; first compound 0.4 µM
  relative viability: 0.534
SW 900; first compound 1.265 µM
  relative viability: 0.614
SW 900; first compound 4 µM
  relative viability: 0.547
